Among the test systems are T47D; HCT-15; SK-MEL-2; PC-3; IGROV-1; EKVX; LOX IMVI; COLO 205; A549; NCI-H226; U-251; OVCAR-4; NCI-H460; UACC-257; ACHN; OVCAR-3; CCRF-CEM; 786-0; HOP-92.
Assay in all cases: inhibition of tumour cell growth, NCI panel, 48 h

Molecules are shown by their SMILES.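 Where inhibition never reached the appropriate level, the endpoint shown equals the highest concentration tested. Otherwise, values were interpolated linearly from a five-concentration, 48-hour dose response in 96-well plates. GI50 marks 50% less growth.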 Activity calls are given as the source filed them. No stated cut-off is given here; in the data, active = GI50 up to about 1.1 µM and inactive = higher. Peptide text beside a SMILES is read from it. * marks the point of attachment. Boc = CC(C)(C)OC(=O)* A value given as a limit tells only on which side of the number the result lay.

This note sets out measurements from ChEMBL document CHEMBL1201862, “PubChem BioAssay data set” (2004).

On to `CC1(C)OC(=C(C#N)C#N)C(C#N)=C1/C=C/c1ccncc1`, for which the GI50 in the assay with T47D was 2.48 µM (inactive); with HCT-15, 2.03 µM; in the assay on SK-MEL-2, 2.66 µM (inactive); in the assay on PC-3 it was 2.29 µM (inactive); in the assay on IGROV-1, 2.17 µM (inactive); with EKVX it was 2.32 µM (inactive). Also, the GI50 in the assay with LOX IMVI was 1.86 µM (inactive); with COLO 205, 1.88 µM (inactive); in the assay on A549, 11.4 µM (inactive); in the assay with NCI-H226 it was 2.43 µM (inactive); in the assay with U-251, 1.85 µM (inactive); in the assay with OVCAR-4 it was 2.96 µM (inactive). Also, the GI50 in the assay with NCI-H460 was 6.53 µM (inactive); in the assay on UACC-257, 2.95 µM (inactive); in the assay with ACHN, 1.87 µM (inactive); in the assay with OVCAR-3, 1.84 µM (inactive); in the assay with CCRF-CEM it was 0.851 µM (active); in the assay on 786-0, 2.03 µM (inactive). Also, in the assay with HOP-92, the GI50 was 2.42 µM (inactive).

On to `O=c1[nH]nc(Cc2ccccc2)n1/N=C/c1c(O)ccc2ccccc12`, for which the GI50 with T47D is 20.2 µM (inactive); in the assay with HCT-15, 51.6 µM; in the assay on SK-MEL-2, 38.1 µM (inactive); in the assay on PC-3, 22.9 µM (inactive); in the assay with IGROV-1, 21.2 µM (inactive); in the assay with EKVX, 20.7 µM (inactive). Moreover, the GI50 is 54 µM (inactive) in the assay on LOX IMVI; 47.4 µM (inactive) in the assay with COLO 205; 32 µM (inactive) in the assay on A549; 24.5 µM (inactive) in the assay on NCI-H226; 18.2 µM (inactive) in the assay with U-251; 17.2 µM (inactive) in the assay on OVCAR-4. Besides, the GI50 with UACC-257 is 35.3 µM (inactive); in the assay on ACHN, 22 µM (inactive); with OVCAR-3 it was 17.1 µM (inactive); with CCRF-CEM, 43.6 µM (inactive); in the assay with 786-0 it was 16.7 µM (inactive); with HOP-92, 19.2 µM (inactive).

For `COc1ccc(/C=C2\CCS(=O)(=O)c3ccccc3C2=O)cc1OC`, the GI50 is 32.3 µM (inactive) in the assay with T47D; 11.9 µM with HCT-15; 35.4 µM (inactive) with SK-MEL-2; 27.5 µM (inactive) in the assay with PC-3; 7.91 µM (inactive) with IGROV-1; 38.2 µM (inactive) with EKVX. The GI50 in the assay with LOX IMVI is 19.1 µM (inactive); with COLO 205, 48.8 µM (inactive); with A549, > 100 µM (inactive); with NCI-H226 it was 29.1 µM (inactive); in the assay with U-251, 31.9 µM (inactive); in the assay on OVCAR-4, 17.9 µM (inactive). In addition, the GI50 in the assay with NCI-H460 is 18.3 µM (inactive); with UACC-257, 35.5 µM (inactive); in the assay with ACHN, 27.5 µM (inactive); in the assay on OVCAR-3, 22.7 µM (inactive); with CCRF-CEM it was 28.9 µM (inactive); in the assay on 786-0, 28.1 µM (inactive). Besides, the GI50 in the assay with HOP-92 was 19.6 µM (inactive).

Regarding `CO/C(N)=C(C#N)/N=C/c1ccco1`, the GI50 with T47D was > 100 µM (inactive); with HCT-15, over 100 µM; with SK-MEL-2 it was > 100 µM (inactive); in the assay with PC-3, > 100 µM (inactive); in the assay on IGROV-1, > 100 µM (inactive); with EKVX it was > 100 µM (inactive). Further, the GI50 in the assay on LOX IMVI, in the assay with COLO 205, in the assay with A549, with NCI-H226, with U-251 and in the assay with OVCAR-4 was > 100 µM (inactive) each time. Besides, the GI50 with UACC-257 was > 100 µM (inactive); in the assay with ACHN it was > 100 µM (inactive); with OVCAR-3 it was > 100 µM (inactive); with CCRF-CEM it was 67.8 µM (inactive); in the assay with 786-0 it was > 100 µM (inactive); in the assay on HOP-92, > 100 µM (inactive).

Turning to `COc1cc(C(=O)n2c3ccc(Br)cc3c3nc4ccccc4nc32)cc(OC)c1OC`, the GI50 with T47D is > 100 µM (inactive); in the assay with HCT-15, over 100 µM; in the assay on SK-MEL-2, 62.8 µM (inactive); with PC-3, > 100 µM (inactive); in the assay with IGROV-1 it was > 100 µM (inactive); with EKVX, > 100 µM (inactive). Also, the GI50 in the assay with LOX IMVI, with COLO 205, in the assay with NCI-H226, in the assay with U-251, in the assay with OVCAR-4 and with NCI-H460 was > 100 µM (inactive) each time. The GI50 was > 100 µM (inactive) with UACC-257; 37.9 µM (inactive) in the assay with ACHN; > 100 µM (inactive) in the assay with OVCAR-3; > 100 µM (inactive) with CCRF-CEM; 44.8 µM (inactive) in the assay with 786-0; 54.5 µM (inactive) in the assay with HOP-92.

With `N#C/C(C(=O)CCl)=C1\Nc2ccccc2O1`, the GI50 with T47D is 15.6 µM (inactive); in the assay on HCT-15, 2.01 µM; in the assay with SK-MEL-2, 3.3 µM (inactive); in the assay on PC-3, 4.45 µM (inactive); in the assay with IGROV-1, 1.83 µM (inactive); with LOX IMVI it was 1.65 µM (inactive). Besides, the GI50 is 1.94 µM (inactive) with COLO 205; 6.1 µM (inactive) with A549; 2.3 µM (inactive) with NCI-H226; 5.36 µM (inactive) with U-251; 1.49 µM (inactive) in the assay with OVCAR-4; 3.19 µM (inactive) in the assay on NCI-H460. The GI50 was 3.07 µM (inactive) in the assay with UACC-257; 3.77 µM (inactive) in the assay with OVCAR-3; 3.29 µM (inactive) in the assay with CCRF-CEM; 3.76 µM (inactive) in the assay with 786-0; 3.88 µM (inactive) in the assay on HOP-92.

Take `CCOCC(NC(=O)C(CC(C)C)NC(=O)OC(C)(C)C)C(N)=O` (stereo not drawn) (Boc-Leu-Ser(Et)-NH2; configuration not given here): the GI50 with T47D was > 100 µM (inactive); in the assay on HCT-15, over 100 µM; with SK-MEL-2 it was > 100 µM (inactive); in the assay on PC-3, > 100 µM (inactive); in the assay on IGROV-1 it was > 100 µM (inactive); with EKVX, > 100 µM (inactive). Further, the GI50 in the assay on LOX IMVI is > 100 µM (inactive); with COLO 205 it was > 100 µM (inactive); with A549 it was > 100 µM (inactive); with NCI-H226, > 100 µM (inactive); in the assay on U-251, 1.46 µM (inactive); with OVCAR-4, > 100 µM (inactive). Further, the GI50 is > 100 µM (inactive) in the assay with UACC-257; > 100 µM (inactive) in the assay on ACHN; > 100 µM (inactive) in the assay with OVCAR-3; 41 µM (inactive) in the assay on CCRF-CEM; > 100 µM (inactive) in the assay on 786-0; > 100 µM (inactive) with HOP-92.

For the compound `COCN1C(=O)[C@@H]2C[C@@H](O)CN2C(=O)c2ccccc21`, the GI50 in the assay with T47D was > 100 µM (inactive); with HCT-15, over 100 µM; in the assay on SK-MEL-2, > 100 µM (inactive); with PC-3, > 100 µM (inactive); in the assay on IGROV-1, > 100 µM (inactive); with EKVX, > 100 µM (inactive). For the same compound, the GI50 in the assay with LOX IMVI, in the assay on COLO 205, in the assay on A549, in the assay on U-251, with OVCAR-4 and in the assay with NCI-H460 was > 100 µM (inactive) throughout. For the same compound, the GI50 in the assay on UACC-257, in the assay with ACHN, with CCRF-CEM, with 786-0 and in the assay on HOP-92 was > 100 µM (inactive) in each case.

`COc1ccc(OCc2nc3cc(C(F)(F)F)ccc3nc2-c2ccccc2)cc1`: the GI50 in the assay with T47D was 13.5 µM (inactive); in the assay with HCT-15, over 100 µM; in the assay with SK-MEL-2, > 100 µM (inactive); in the assay with PC-3, > 100 µM (inactive); in the assay on EKVX it was > 100 µM (inactive); in the assay with LOX IMVI it was > 100 µM (inactive). For the same compound, the GI50 with COLO 205, with A549, in the assay with NCI-H226, with U-251, in the assay with OVCAR-4 and in the assay with NCI-H460 was > 100 µM (inactive) each time. For the same compound, the GI50 in the assay on UACC-257, in the assay on ACHN, with OVCAR-3, with CCRF-CEM, with 786-0 and with HOP-92 was > 100 µM (inactive) each time.

As to `O=C(O)C1=NN(c2ccc(S(=O)(=O)O)cc2)C2(C1)C(Cl)C(=O)N2c1nc2ccccc2s1` (configuration not stated), the GI50 in the assay on T47D was 20.5 µM (inactive); in the assay on HCT-15 it was 20.6 µM; with SK-MEL-2, 15.6 µM (inactive); in the assay with PC-3, 16.6 µM (inactive); in the assay with IGROV-1 it was 7.83 µM (inactive); with EKVX it was 16 µM (inactive). For the same compound, the GI50 in the assay on LOX IMVI is 2.99 µM (inactive); in the assay with COLO 205, 18.6 µM (inactive); in the assay with A549, 16.6 µM (inactive); with NCI-H226, 16.5 µM (inactive); in the assay with U-251, 15.8 µM (inactive); in the assay with OVCAR-4 it was 16.4 µM (inactive). Further, the GI50 was 16 µM (inactive) with NCI-H460; 17.2 µM (inactive) in the assay with UACC-257; 17 µM (inactive) in the assay with ACHN; 12.8 µM (inactive) in the assay on OVCAR-3; 16.1 µM (inactive) with 786-0; 20.5 µM (inactive) in the assay with HOP-92.

Take `COP1(=S)OCC2CCC[C@@H]2O1` (some centres not stated): the GI50 was > 100 µM (inactive) in the assay on T47D; over 100 µM in the assay with HCT-15; > 100 µM (inactive) in the assay with SK-MEL-2; > 100 µM (inactive) with PC-3; > 100 µM (inactive) in the assay with IGROV-1; > 100 µM (inactive) with COLO 205. Also, the GI50 with A549, with NCI-H226, in the assay on U-251, with OVCAR-4, in the assay on NCI-H460 and in the assay on UACC-257 was > 100 µM (inactive) throughout. Besides, the GI50 in the assay with ACHN, with OVCAR-3, with CCRF-CEM, in the assay on 786-0 and with HOP-92 was > 100 µM (inactive) throughout.
